Read-outs that look alike come from different tables or passages of the source.
Tests used:
[1] = target: T1, 5-HT transporter (h) (Homo sapiens, UniProt P31645); format: binding; conditions: 1 h
T1 construct: host or cells: CHO cells

[2] = target: T2, dopamine transporter (h) (Homo sapiens, UniProt Q01959); format: binding; conditions: 1.0E-06 M
T2 construct: host or cells: CHO cells

[3] = target: T3, δ2 (DOP) (h) (Homo sapiens, UniProt P41143); format: binding; conditions: 1.0E-06 M
T3 construct: host or cells: CHO cells

[4] = target: PDE5 (h) (non-selective) (Homo sapiens, UniProt O76074); assay: biochemical
[5] = target: T4, 5-HT3 (h) (Homo sapiens, UniProt P46098); assay: biochemical
T4 sequence (P46098 24-478): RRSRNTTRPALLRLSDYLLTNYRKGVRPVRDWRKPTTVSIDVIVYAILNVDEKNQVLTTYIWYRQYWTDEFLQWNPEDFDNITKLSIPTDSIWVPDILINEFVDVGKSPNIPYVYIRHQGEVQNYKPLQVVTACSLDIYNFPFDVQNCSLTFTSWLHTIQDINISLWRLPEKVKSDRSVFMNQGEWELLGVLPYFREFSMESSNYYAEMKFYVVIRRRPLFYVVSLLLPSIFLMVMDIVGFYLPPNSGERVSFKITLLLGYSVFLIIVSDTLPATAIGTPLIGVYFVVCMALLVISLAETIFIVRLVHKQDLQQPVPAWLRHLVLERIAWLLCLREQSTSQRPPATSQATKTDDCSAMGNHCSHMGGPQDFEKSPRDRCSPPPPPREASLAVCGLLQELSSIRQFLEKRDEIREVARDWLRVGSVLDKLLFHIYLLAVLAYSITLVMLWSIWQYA

[6] = target: T5, norepinephrine transporter (h) (Homo sapiens, UniProt P23975); format: binding
T5 construct: host or cells: CHO cells

[7] = target: D2S (h) (Homo sapiens, UniProt P14416); format: binding; set-up: host or cells: HEK-293 cells; conditions: 1.0E-06 M
[8] = target: T6, GABAA1 (h) (α1,β2,γ2) (Homo sapiens, UniProt P14867+P47870); format: binding; conditions: 1.0E-06 M
T6 construct: host or cells: CHO cells

[9] = target: T7, 5-HT2A (h) (Homo sapiens, UniProt P28223); format: binding; conditions: 1.0E-06 M
T7 construct: host or cells: HEK-293 cells

[10] = target: T8, MAO-A (Rattus norvegicus, UniProt P21396); format: binding; conditions: 1 h, 1.0E-06 M
T8 construct: tissue Cerep; host or cells: rat cerebral cortex
T8 sequence (P21396 1-526): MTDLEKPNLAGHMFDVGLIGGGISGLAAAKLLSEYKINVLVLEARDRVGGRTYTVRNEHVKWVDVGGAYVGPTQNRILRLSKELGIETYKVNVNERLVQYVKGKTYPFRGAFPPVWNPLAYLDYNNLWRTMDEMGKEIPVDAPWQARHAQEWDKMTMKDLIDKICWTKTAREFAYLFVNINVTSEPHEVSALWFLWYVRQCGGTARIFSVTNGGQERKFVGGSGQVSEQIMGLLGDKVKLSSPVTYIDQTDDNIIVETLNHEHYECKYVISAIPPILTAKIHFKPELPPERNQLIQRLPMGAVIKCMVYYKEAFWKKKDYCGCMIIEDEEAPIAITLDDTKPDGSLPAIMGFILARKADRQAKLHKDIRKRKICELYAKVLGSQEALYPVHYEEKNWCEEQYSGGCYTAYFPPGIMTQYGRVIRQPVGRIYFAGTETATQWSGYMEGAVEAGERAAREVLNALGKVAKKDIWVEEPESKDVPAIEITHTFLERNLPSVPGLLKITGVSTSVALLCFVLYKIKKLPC

[11] = target: T9, 5-HT2C (h) (Homo sapiens, UniProt P28335); format: binding; conditions: 1 h, 1.0E-06 M
T9 construct: host or cells: HEK-293 cells
T9 sequence (P28335 33-458): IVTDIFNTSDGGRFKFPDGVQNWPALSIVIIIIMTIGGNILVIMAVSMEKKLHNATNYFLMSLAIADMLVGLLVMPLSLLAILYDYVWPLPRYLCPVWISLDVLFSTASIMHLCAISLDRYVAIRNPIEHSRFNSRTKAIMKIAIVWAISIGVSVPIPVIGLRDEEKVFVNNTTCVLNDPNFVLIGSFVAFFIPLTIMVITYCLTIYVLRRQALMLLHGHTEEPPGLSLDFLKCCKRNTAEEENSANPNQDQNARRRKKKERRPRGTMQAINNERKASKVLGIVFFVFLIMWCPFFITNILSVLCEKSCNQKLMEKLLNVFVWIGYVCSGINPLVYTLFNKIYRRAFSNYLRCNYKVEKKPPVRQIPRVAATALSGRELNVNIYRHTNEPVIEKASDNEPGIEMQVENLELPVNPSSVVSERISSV

[12] = target: T10, D1 (h) (Homo sapiens, UniProt P21728); format: binding
T10 construct: host or cells: CHO cells

[13] = target: T11, Nav1.2 (Homo sapiens, UniProt Q99250); assay: Ion channel selectivity patch clamp; format: cell-based
T11 construct: The cDNAs for various full-length ion channels were subcloned into pcDNA5/TO; expressed in transfected cells

[14] = target: T12, acetylcholinesterase (h) (Homo sapiens, UniProt P22303); assay: enzyme assay; format: biochemical; conditions: 1.0E-06 M
T12 construct: host or cells: HEK-293 cells

[15] = target: T13, Nav1.5 (Homo sapiens, UniProt Q14524); assay: Ion channel selectivity patch clamp; format: cell-based
T13 construct: The cDNAs for various full-length ion channels were subcloned into pcDNA5/TO; expressed in transfected cells

T6 sequence (P14867 28-456): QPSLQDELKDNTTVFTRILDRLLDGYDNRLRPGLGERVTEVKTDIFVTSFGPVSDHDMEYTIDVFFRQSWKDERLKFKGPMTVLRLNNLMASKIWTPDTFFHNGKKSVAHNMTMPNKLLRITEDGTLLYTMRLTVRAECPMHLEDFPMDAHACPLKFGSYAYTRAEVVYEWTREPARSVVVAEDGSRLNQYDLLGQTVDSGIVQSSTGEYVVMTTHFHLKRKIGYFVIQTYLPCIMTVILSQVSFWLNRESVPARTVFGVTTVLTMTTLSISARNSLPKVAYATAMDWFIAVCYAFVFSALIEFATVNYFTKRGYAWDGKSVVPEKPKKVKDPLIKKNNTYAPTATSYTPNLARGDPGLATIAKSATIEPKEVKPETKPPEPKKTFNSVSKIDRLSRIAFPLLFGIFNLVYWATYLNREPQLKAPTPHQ
T6 sequence (P47870 25-512 limits assumed): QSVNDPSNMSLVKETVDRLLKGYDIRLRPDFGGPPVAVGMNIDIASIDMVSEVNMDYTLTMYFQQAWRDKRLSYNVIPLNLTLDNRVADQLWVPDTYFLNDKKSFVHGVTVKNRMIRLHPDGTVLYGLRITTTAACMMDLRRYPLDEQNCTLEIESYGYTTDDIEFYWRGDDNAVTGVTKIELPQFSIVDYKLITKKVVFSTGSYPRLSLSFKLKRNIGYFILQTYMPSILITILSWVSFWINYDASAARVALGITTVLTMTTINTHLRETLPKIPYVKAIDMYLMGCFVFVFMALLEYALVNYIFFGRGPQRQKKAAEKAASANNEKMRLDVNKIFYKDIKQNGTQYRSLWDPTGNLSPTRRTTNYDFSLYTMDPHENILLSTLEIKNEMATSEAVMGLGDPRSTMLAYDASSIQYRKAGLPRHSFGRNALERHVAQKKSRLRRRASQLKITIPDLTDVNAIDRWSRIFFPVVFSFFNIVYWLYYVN
T6 sequence (P18507 40-475 partner): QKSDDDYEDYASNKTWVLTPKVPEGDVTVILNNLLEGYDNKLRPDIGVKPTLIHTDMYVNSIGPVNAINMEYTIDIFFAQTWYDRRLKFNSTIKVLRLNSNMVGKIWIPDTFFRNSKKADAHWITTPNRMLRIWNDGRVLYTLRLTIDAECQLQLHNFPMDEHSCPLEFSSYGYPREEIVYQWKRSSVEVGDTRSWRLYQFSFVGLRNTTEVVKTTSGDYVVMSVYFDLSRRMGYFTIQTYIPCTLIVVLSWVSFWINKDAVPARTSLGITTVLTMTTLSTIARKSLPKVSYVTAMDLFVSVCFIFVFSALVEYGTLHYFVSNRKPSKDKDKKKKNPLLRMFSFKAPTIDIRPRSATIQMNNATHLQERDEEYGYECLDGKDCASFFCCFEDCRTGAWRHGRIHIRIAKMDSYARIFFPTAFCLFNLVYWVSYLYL
T10 sequence (P21728 whole entry): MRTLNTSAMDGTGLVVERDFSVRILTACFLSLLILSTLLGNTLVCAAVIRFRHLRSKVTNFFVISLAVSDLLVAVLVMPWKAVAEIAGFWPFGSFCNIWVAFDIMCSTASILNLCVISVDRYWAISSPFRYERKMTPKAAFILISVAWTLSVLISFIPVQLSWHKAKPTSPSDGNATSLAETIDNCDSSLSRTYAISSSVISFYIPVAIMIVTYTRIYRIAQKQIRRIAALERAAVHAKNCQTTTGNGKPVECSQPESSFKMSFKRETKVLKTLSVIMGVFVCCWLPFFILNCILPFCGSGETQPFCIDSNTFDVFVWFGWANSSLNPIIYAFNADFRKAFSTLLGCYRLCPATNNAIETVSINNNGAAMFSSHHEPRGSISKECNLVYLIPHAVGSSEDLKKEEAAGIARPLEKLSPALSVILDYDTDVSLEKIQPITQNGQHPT
T5 sequence (P23975 whole entry): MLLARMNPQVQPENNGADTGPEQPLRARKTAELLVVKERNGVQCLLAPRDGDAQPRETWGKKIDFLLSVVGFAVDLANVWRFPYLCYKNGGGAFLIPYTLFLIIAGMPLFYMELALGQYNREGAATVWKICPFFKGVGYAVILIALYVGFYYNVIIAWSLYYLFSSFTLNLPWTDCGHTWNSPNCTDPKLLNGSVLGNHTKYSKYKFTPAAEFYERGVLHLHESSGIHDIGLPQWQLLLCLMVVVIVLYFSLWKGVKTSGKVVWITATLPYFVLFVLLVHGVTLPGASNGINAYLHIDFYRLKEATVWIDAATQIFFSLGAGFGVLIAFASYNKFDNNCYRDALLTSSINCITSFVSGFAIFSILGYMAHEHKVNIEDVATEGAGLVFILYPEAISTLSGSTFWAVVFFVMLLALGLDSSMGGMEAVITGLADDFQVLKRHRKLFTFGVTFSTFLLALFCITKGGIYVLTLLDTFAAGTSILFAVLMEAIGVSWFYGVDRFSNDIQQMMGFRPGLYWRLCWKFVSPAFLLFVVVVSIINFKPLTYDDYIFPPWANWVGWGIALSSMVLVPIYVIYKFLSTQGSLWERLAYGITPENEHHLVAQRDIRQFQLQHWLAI
T2 sequence (Q01959 whole entry): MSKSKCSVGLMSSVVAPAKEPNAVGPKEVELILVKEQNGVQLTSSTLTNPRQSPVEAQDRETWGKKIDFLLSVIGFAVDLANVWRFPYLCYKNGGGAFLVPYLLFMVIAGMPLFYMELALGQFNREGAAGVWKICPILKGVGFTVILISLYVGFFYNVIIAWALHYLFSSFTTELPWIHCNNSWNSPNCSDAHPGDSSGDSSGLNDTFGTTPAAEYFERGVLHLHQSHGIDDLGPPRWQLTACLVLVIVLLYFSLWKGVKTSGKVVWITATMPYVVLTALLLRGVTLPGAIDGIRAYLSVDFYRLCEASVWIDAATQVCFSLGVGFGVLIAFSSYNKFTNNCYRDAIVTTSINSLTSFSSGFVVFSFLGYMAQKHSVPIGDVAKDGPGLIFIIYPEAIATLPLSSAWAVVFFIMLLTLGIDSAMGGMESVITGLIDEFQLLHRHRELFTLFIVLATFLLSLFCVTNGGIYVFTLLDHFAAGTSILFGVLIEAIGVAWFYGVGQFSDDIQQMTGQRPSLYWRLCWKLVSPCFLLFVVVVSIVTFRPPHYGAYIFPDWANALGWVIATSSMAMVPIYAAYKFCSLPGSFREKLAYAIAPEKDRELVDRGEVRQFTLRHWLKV
T3 sequence (P41143 whole entry): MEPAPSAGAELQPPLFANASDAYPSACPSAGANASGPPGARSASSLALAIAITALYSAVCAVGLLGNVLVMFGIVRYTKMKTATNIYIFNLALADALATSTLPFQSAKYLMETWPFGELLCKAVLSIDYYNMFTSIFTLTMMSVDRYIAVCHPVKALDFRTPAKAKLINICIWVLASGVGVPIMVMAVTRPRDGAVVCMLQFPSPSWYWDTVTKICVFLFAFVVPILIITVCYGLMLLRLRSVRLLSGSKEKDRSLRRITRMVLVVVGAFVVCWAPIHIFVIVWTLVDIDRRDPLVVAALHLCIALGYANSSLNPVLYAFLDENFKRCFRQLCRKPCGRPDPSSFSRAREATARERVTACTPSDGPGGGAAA
Chain of D2S (h) (P14416 1-414 isoform P14416-2): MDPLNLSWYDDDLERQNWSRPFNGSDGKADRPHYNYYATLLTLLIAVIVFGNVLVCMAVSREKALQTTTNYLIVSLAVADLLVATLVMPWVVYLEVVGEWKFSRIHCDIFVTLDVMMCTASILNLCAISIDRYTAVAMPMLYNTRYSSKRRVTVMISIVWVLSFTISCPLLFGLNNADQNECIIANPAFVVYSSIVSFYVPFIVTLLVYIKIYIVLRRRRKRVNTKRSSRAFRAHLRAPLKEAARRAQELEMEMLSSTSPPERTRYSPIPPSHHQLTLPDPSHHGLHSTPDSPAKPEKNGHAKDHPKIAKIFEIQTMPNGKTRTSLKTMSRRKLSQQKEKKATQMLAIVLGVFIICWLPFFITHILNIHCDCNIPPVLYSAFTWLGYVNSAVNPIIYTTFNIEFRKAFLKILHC
T1 sequence (P31645 whole entry): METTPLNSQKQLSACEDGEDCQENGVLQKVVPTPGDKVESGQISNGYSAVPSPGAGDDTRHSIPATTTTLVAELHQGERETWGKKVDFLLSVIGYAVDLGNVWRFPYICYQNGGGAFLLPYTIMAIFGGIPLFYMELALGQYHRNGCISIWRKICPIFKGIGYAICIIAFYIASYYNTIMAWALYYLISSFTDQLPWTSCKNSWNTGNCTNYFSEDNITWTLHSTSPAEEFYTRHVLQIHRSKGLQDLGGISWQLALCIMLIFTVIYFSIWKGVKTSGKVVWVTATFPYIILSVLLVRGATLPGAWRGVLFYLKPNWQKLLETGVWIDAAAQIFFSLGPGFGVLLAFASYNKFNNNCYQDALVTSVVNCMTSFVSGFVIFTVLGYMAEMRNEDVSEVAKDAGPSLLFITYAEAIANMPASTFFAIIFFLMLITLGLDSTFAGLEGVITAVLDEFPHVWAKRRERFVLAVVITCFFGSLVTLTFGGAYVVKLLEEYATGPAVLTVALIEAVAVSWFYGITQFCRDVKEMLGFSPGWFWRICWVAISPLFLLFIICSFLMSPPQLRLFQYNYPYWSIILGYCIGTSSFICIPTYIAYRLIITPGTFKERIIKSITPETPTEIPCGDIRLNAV
T7 sequence (P28223 whole entry): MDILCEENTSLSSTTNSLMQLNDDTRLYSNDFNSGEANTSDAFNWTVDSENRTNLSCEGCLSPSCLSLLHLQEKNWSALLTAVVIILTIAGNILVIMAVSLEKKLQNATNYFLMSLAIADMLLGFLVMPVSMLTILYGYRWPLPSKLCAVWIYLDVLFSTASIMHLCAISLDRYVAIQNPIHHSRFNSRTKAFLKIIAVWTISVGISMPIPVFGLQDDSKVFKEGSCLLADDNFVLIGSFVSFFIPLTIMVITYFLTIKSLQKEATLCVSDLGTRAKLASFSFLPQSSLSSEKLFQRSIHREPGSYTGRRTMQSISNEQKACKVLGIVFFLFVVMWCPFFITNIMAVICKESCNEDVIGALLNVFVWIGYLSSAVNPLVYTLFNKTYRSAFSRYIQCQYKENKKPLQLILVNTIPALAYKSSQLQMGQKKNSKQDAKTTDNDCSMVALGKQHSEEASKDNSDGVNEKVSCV

## Cn1c(=O)n(CCCO)c(=O)c2c1nc(Oc1cccc(Cl)c1)n2Cc1ccc(Cl)cc1 [HC-070]
[1]; read-out: % Inhibition 1st
  inhibition at 1 µM: -0.3%
[1]; read-out: % Inhibition 2nd
  inhibition at 1 µM: 18.4%
[1]; read-out: % Inhibition Mean
  inhibition at 1 µM: 9.1%
[2]; read-out: % Inhibition 1st
  inhibition at 1 µM: 8.9%
[2]; read-out: % Inhibition 2nd
  inhibition at 1 µM: 8.6%
[2]; read-out: % Inhibition Mean
  inhibition at 1 µM: 8.8%
[3]; read-out: % Inhibition 1st
  inhibition at 1 µM: 6.8%
[3]; read-out: % Inhibition 2nd
  inhibition at 1 µM: 5.9%
[3]; read-out: % Inhibition Mean
  inhibition at 1 µM: 6.3%
[4]; read-out: % Inhibition 1st
  inhibition at 1 µM: 27.3%
[4]; read-out: % Inhibition 2nd
  inhibition at 1 µM: 50.4%
[4]; read-out: % Inhibition Mean
  inhibition at 1 µM: 38.9%
[5]; read-out: % Inhibition 1st
  inhibition at 1 µM: 4.7%
[5]; read-out: % Inhibition 2nd
  inhibition at 1 µM: 2.6%
[5]; read-out: % Inhibition Mean
  inhibition at 1 µM: 3.7%
[6]; read-out: % Inhibition 1st
  inhibition at 1 µM: -10.1%
[6]; read-out: % Inhibition 2nd
  inhibition at 1 µM: -0.6%
[6]; read-out: % Inhibition Mean
  inhibition at 1 µM: -5.4%
[7]; read-out: % Inhibition 1st
  inhibition at 1 µM: -3%
[7]; read-out: % Inhibition 2nd
  inhibition at 1 µM: 3.4%
[7]; read-out: % Inhibition Mean
  inhibition at 1 µM: 0.2%
[8]; read-out: % Inhibition 1st
  inhibition at 1 µM: 27.9%
[8]; read-out: % Inhibition 2nd
  inhibition at 1 µM: 16.4%
[8]; read-out: % Inhibition Mean
  inhibition at 1 µM: 22.1%
[9]; read-out: % Inhibition 1st
  inhibition at 1 µM: -1.3%
[9]; read-out: % Inhibition 2nd
  inhibition at 1 µM: 6.1%
[9]; read-out: % Inhibition Mean
  inhibition at 1 µM: 2.4%
[10]; read-out: % Inhibition 1st
  inhibition at 1 µM: 12.6%
[10]; read-out: % Inhibition 2nd
  inhibition at 1 µM: 13.1%
[10]; read-out: % Inhibition Mean
  inhibition at 1 µM: 12.8%
[11]; read-out: % Inhibition 1st
  inhibition at 1 µM: -13.4%
[11]; read-out: % Inhibition 2nd
  inhibition at 1 µM: -9.5%
[11]; read-out: % Inhibition Mean
  inhibition at 1 µM: -11.5%
[12]; read-out: % Inhibition 1st
  inhibition at 1 µM: 3%
[12]; read-out: % Inhibition 2nd
  inhibition at 1 µM: -4.8%
[12]; read-out: % Inhibition Mean
  inhibition at 1 µM: -0.9%
[13]
  IC50: > 1900 nM
[14]; read-out: % Inhibition 1st
  inhibition at 1 µM: 2.1%
[14]; read-out: % Inhibition 2nd
  inhibition at 1 µM: -0.7%
[14]; read-out: % Inhibition Mean
  inhibition at 1 µM: 0.7%
[15]
  IC50: > 1900 nM

## Cn1c(=O)n(CCCO)c(=O)c2c1nc(Oc1cccc(OC(F)(F)F)c1)n2Cc1ccc(Cl)cc1 [HC-608]
[1]; read-out: % Inhibition 1st
  inhibition at 1 µM: -6.2%
[1]; read-out: % Inhibition 2nd
  inhibition at 1 µM: 4.6%
[1]; read-out: % Inhibition Mean
  inhibition at 1 µM: -0.8%
[2]; read-out: % Inhibition 1st
  inhibition at 1 µM: 22.8%
[2]; read-out: % Inhibition 2nd
  inhibition at 1 µM: 37.1%
[2]; read-out: % Inhibition Mean
  inhibition at 1 µM: 29.9%
[3]; read-out: % Inhibition 1st
  inhibition at 1 µM: -10.8%
[3]; read-out: % Inhibition 2nd
  inhibition at 1 µM: 3.1%
[3]; read-out: % Inhibition Mean
  inhibition at 1 µM: -3.9%
[4]; read-out: % Inhibition 1st
  inhibition at 1 µM: 54.6%
[4]; read-out: % Inhibition 2nd
  inhibition at 1 µM: 59.4%
[4]; read-out: % Inhibition Mean
  inhibition at 1 µM: 57%
[5]; read-out: % Inhibition 1st
  inhibition at 1 µM: -4.1%
[5]; read-out: % Inhibition 2nd
  inhibition at 1 µM: 9.5%
[5]; read-out: % Inhibition Mean
  inhibition at 1 µM: 2.7%
[6]; read-out: % Inhibition 1st
  inhibition at 1 µM: 4.8%
[6]; read-out: % Inhibition 2nd
  inhibition at 1 µM: 18.1%
[6]; read-out: % Inhibition Mean
  inhibition at 1 µM: 11.5%
[7]; read-out: % Inhibition 1st
  inhibition at 1 µM: 4.6%
[7]; read-out: % Inhibition 2nd
  inhibition at 1 µM: 0.2%
[7]; read-out: % Inhibition Mean
  inhibition at 1 µM: 2.4%
[8]; read-out: % Inhibition 1st
  inhibition at 1 µM: 0.6%
[8]; read-out: % Inhibition 2nd
  inhibition at 1 µM: 7.9%
[8]; read-out: % Inhibition Mean
  inhibition at 1 µM: 4.2%
[9]; read-out: % Inhibition 1st
  inhibition at 1 µM: 1.8%
[9]; read-out: % Inhibition 2nd
  inhibition at 1 µM: -14.3%
[9]; read-out: % Inhibition Mean
  inhibition at 1 µM: -6.2%
[10]; read-out: % Inhibition 1st
  inhibition at 1 µM: -3.8%
[10]; read-out: % Inhibition 2nd
  inhibition at 1 µM: 3.6%
[10]; read-out: % Inhibition Mean
  inhibition at 1 µM: -0.1%
[11]; read-out: % Inhibition 1st
  inhibition at 1 µM: -8.5%
[11]; read-out: % Inhibition 2nd
  inhibition at 1 µM: -4.7%
[11]; read-out: % Inhibition Mean
  inhibition at 1 µM: -6.6%
[12]; read-out: % Inhibition 1st
  inhibition at 1 µM: 1.1%
[12]; read-out: % Inhibition 2nd
  inhibition at 1 µM: 5%
[12]; read-out: % Inhibition Mean
  inhibition at 1 µM: 3.1%
[13]
  IC50: > 1640 nM
[14]; read-out: % Inhibition 1st
  inhibition at 1 µM: -5.9%
[14]; read-out: % Inhibition 2nd
  inhibition at 1 µM: -3.5%
[14]; read-out: % Inhibition Mean
  inhibition at 1 µM: -4.7%
[15]
  IC50: > 1640 nM
